Results as given in paper PMC5218480 (PLoS ONE, 2017).

Test system: MV-4-11 cells
Test: Gene expression microarray analysis (Affymetrix PrimeView) and GSEA
Type: cell-based, human
Design: RFU PODN (11730768_x_at) / Fold change /veh PODN (11730768_x_at) / RFU LINC00158 (11744669_a_at) / Fold change /veh LINC00158 (11744669_a_at) / RFU DUSP10 (11751237_a_at) / Fold change /veh DUSP10 (11751237_a_at) / RFU ID3 (11757404_x_at) / Fold change /veh ID3 (11757404_x_at) / RFU PLEKHG5 (11737974_s_at) / Fold change /veh PLEKHG5 (11737974_s_at) / RFU LRRC4B (11730491_at) / Fold change /veh LRRC4B (11730491_at) / RFU GIMAP4 (11747438_a_at) / Fold change /veh GIMAP4 (11747438_a_at) / RFU KRT8 (11758183_x_at) / Fold change /veh KRT8 (11758183_x_at) / RFU CNN1 (11734310_a_at) / Fold change /veh CNN1 (11734310_a_at) / RFU VPS37D (11726825_at) / Fold change /veh VPS37D (11726825_at) / RFU C10orf10 (11716522_x_at) / Fold change /veh C10orf10 (11716522_x_at) / RFU KIR2DL2 /// KIR2DL4 /// KIR2DL5A /// KIR2DL5B /// KIR2DS1 /// KIR2DS2 /// KIR2DS3 /// KIR2DS4 /// KIR3DL3 /// KIR3DL3 /// KIR3DS1 (11738374_at) / Fold change /veh KIR2DL2 /// KIR2DL4 /// KIR2DL5A /// KIR2DL5B /// KIR2DS1 /// KIR2DS2 /// KIR2DS3 /// KIR2DS4 /// KIR3DL3 /// KIR3DL3 /// KIR3DS1 (11738374_at) / RFU C1QL1 (11718748_at) / Fold change /veh C1QL1 (11718748_at) / RFU TMPRSS4 (11747572_a_at) / Fold change /veh TMPRSS4 (11747572_a_at) / RFU HAMP (11756126_x_at) / Fold change /veh HAMP (11756126_x_at) / RFU RNFT2 (11725882_a_at) / Fold change /veh RNFT2 (11725882_a_at) / RFU NR4A2 (11747474_a_at) / Fold change /veh NR4A2 (11747474_a_at) / RFU ABCC12 (11746883_a_at) / Fold change /veh ABCC12 (11746883_a_at) / RFU TMEM136 (11760407_x_at) / Fold change /veh TMEM136 (11760407_x_at) / RFU CLDN22 /// WWC2 (11732394_at) / Fold change /veh CLDN22 /// WWC2 (11732394_at) / RFU HLA-DPB1 (11760878_x_at) / Fold change /veh HLA-DPB1 (11760878_x_at) / RFU SPINT1 (11716480_a_at) / Fold change /veh SPINT1 (11716480_a_at) / RFU GAP43 (11754022_s_at) / Fold change /veh GAP43 (11754022_s_at) / RFU A4GNT (11735810_at) / Fold change /veh A4GNT (11735810_at) / RFU PRB3 (11715151_x_at) / Fold change /veh PRB3 (11715151_x_at) / RFU TUBB4B (11761932_at) / Fold change /veh TUBB4B (11761932_at) / RFU CAPN14 (11732068_a_at) / Fold change /veh CAPN14 (11732068_a_at) / RFU TMCC2 (11721928_a_at) / Fold change /veh TMCC2 (11721928_a_at) / RFU IRGQ (11745062_a_at) / Fold change /veh IRGQ (11745062_a_at) / RFU FAM174B (11720279_a_at) / Fold change /veh FAM174B (11720279_a_at) / RFU TMPRSS4 (11748680_a_at) / Fold change /veh TMPRSS4 (11748680_a_at) / RFU FAM212B (11763350_a_at) / Fold change /veh FAM212B (11763350_a_at) / RFU PLEKHG5 (11743358_a_at) / Fold change /veh PLEKHG5 (11743358_a_at) / RFU ZSCAN30 (11745921_a_at) / Fold change /veh ZSCAN30 (11745921_a_at) / RFU CMKLR1 (11741424_a_at) / Fold change /veh CMKLR1 (11741424_a_at) / RFU LOC101060620 /// MAPK8IP1 (11723275_at) / Fold change /veh LOC101060620 /// MAPK8IP1 (11723275_at) / RFU SPTSSB (11747773_x_at) / Fold change /veh SPTSSB (11747773_x_at) / RFU PRSS12 (11739890_at) / Fold change /veh PRSS12 (11739890_at) / RFU BIN1 (11741810_x_at) / Fold change /veh BIN1 (11741810_x_at) / RFU WNT11 (11732464_a_at) / Fold change /veh WNT11 (11732464_a_at) / RFU C10orf10 (11716521_a_at) / Fold change /veh C10orf10 (11716521_a_at) / RFU C5orf56 (11738089_at) / Fold change /veh C5orf56 (11738089_at) / RFU CYB561 (11721691_x_at) / Fold change /veh CYB561 (11721691_x_at) / RFU ANKRD19P (11752326_a_at) / Fold change /veh ANKRD19P (11752326_a_at) / RFU OR2T12 /// OR2T33 /// OR2T8 (11738714_s_at) / Fold change /veh OR2T12 /// OR2T33 /// OR2T8 (11738714_s_at) / RFU VCAN (11748164_a_at) / Fold change /veh VCAN (11748164_a_at) / RFU JSRP1 (11732532_at) / Fold change /veh JSRP1 (11732532_at) / RFU KRTAP10-11 (11738290_x_at) / Fold change /veh KRTAP10-11 (11738290_x_at) / RFU MYO3A (11730013_a_at) / Fold change /veh MYO3A (11730013_a_at) / RFU EBF3 (11725865_a_at) / Fold change /veh EBF3 (11725865_a_at) / RFU CAMK2N1 (11719241_x_at) / Fold change /veh CAMK2N1 (11719241_x_at) / RFU C5orf56 (11738088_a_at) / Fold change /veh C5orf56 (11738088_a_at) / RFU OLFML3 (11715873_a_at) / Fold change /veh OLFML3 (11715873_a_at) / RFU LOC100653217 /// NTM (11731650_a_at) / Fold change /veh LOC100653217 /// NTM (11731650_a_at) / RFU MAPK11 (11762145_a_at) / Fold change /veh MAPK11 (11762145_a_at) / RFU FIZ1 (11724087_x_at) / Fold change /veh FIZ1 (11724087_x_at) / RFU OASL (11726364_x_at) / Fold change /veh OASL (11726364_x_at) / RFU SOX15 (11748057_x_at) / Fold change /veh SOX15 (11748057_x_at) / RFU CD79A (11719716_a_at) / Fold change /veh CD79A (11719716_a_at) / RFU HIST1H1D (11736915_at) / Fold change /veh HIST1H1D (11736915_at) / RFU CASKIN2 (11723855_a_at) / Fold change /veh CASKIN2 (11723855_a_at) / RFU LOC730098 (11760151_x_at) / Fold change /veh LOC730098 (11760151_x_at) / RFU OR4N2 (11742367_at) / Fold change /veh OR4N2 (11742367_at) / RFU PRRT2 (11749266_a_at) / Fold change /veh PRRT2 (11749266_a_at) / RFU SNX32 (11753110_a_at) / Fold change /veh SNX32 (11753110_a_at) / RFU CDHR5 (11726645_a_at) / Fold change /veh CDHR5 (11726645_a_at) / RFU RCAN1 (11760418_a_at) / Fold change /veh RCAN1 (11760418_a_at) / RFU FAM167A (11723789_a_at) / Fold change /veh FAM167A (11723789_a_at) / RFU FAM26E (11764081_at) / Fold change /veh FAM26E (11764081_at) / RFU ISYNA1 (11749810_s_at) / Fold change /veh ISYNA1 (11749810_s_at) / RFU ACY1 (11761880_at) / Fold change /veh ACY1 (11761880_at) / RFU 11764098_at / Fold change /veh 11764098_at / RFU SAMD14 (11745864_x_at) / Fold change /veh SAMD14 (11745864_x_at) / RFU NPB (11741838_a_at) / Fold change /veh NPB (11741838_a_at) / RFU TMPRSS6 (11731388_a_at) / Fold change /veh TMPRSS6 (11731388_a_at) / RFU KRTAP10-2 (11738614_at) / Fold change /veh KRTAP10-2 (11738614_at) / RFU ARHGAP8 /// PRR5-ARHGAP8 (11727945_x_at) / Fold change /veh ARHGAP8 /// PRR5-ARHGAP8 (11727945_x_at) / RFU KRTAP5-7 /// NADSYN1 (11734609_at) / Fold change /veh KRTAP5-7 /// NADSYN1 (11734609_at) / RFU RASL12 (11751679_a_at) / Fold change /veh RASL12 (11751679_a_at) / RFU CDKN2B (11736163_a_at) / Fold change /veh CDKN2B (11736163_a_at) / RFU PRF1 (11729649_at) / Fold change /veh PRF1 (11729649_at) / RFU, ZNF638 /// ZNF638-IT1 / Fold change vs veh, ZNF638 /// ZNF638-IT1 / RFU, PANK3 / Fold change vs veh, PANK3 / RFU, SH3YL1 / Fold change vs veh, SH3YL1 / RFU, ZEB2 / Fold change vs veh, ZEB2 / RFU, NRIP1 / Fold change vs veh, NRIP1 / RFU, PTTG1IP / Fold change vs veh, PTTG1IP / RFU, CAPN2 / Fold change vs veh, CAPN2 / RFU, MED14 / Fold change vs veh, MED14 / RFU, SNORA58 / Fold change vs veh, SNORA58 / RFU, C1orf63 / Fold change vs veh, C1orf63 / RFU, LRRFIP1 / Fold change vs veh, LRRFIP1 / RFU, NDUFAF7 / Fold change vs veh, NDUFAF7 / RFU, SLC12A2 / Fold change vs veh, SLC12A2 / RFU, IBTK / Fold change vs veh, IBTK / RFU, ESF1 / Fold change vs veh, ESF1 / Fold change vs veh, TMEM50B / RFU, TAOK1 / Fold change vs veh, TAOK1 / RFU, ACBD3 / Fold change vs veh, ACBD3 / RFU, TMA16 / Fold change vs veh, TMA16 / RFU, RWDD3 / Fold change vs veh, RWDD3 / RFU, BCAT1 / Fold change vs veh, BCAT1 / RFU, EDEM3 / Fold change vs veh, EDEM3 / RFU, TMEM33 / Fold change vs veh, TMEM33 / RFU, WDR75 / Fold change vs veh, WDR75 / RFU, AHCTF1 / Fold change vs veh, AHCTF1 / RFU, TFRC / Fold change vs veh, TFRC / RFU, ZDHHC17 / Fold change vs veh, ZDHHC17 / RFU, NOM1 / Fold change vs veh, NOM1 / RFU, ARL8B / Fold change vs veh, ARL8B / RFU, ZBTB11 / Fold change vs veh, ZBTB11 / RFU, TAMM41 / Fold change vs veh, TAMM41 / RFU, KIAA1704 /// LOC100996395 / Fold change vs veh, KIAA1704 /// LOC100996395 / RFU, ING1 / Fold change vs veh, ING1 / RFU, TRMT61B / Fold change vs veh, TRMT61B / RFU, FUBP3 / Fold change vs veh, FUBP3 / RFU, TP53 / Fold change vs veh, TP53 / RFU, TNKS2 / Fold change vs veh, TNKS2 / RFU, ZFP14 / Fold change vs veh, ZFP14 / RFU, ACTR2 / Fold change vs veh, ACTR2 / RFU, PPP3R1 / Fold change vs veh, PPP3R1 / RFU, PIK3R1 / Fold change vs veh, PIK3R1 / RFU, HNRNPA1 / Fold change vs veh, HNRNPA1 / RFU, RNF170 / Fold change vs veh, RNF170 / RFU, ZNF28 / Fold change vs veh, ZNF28 / RFU, RNGTT / Fold change vs veh, RNGTT / RFU, OGT / Fold change vs veh, OGT / RFU, BRD1 / Fold change vs veh, BRD1 / RFU, MARS / Fold change vs veh, MARS / RFU, ZNF655 / Fold change vs veh, ZNF655 / RFU, FAHD1 / Fold change vs veh, FAHD1 / RFU, BDP1 / Fold change vs veh, BDP1 / RFU, LRRCC1 / Fold change vs veh, LRRCC1 / RFU, ARID1A / Fold change vs veh, ARID1A / RFU, ZNF146 / Fold change vs veh, ZNF146 / RFU, ZNF330 / Fold change vs veh, ZNF330 / RFU, GPN3 / Fold change vs veh, GPN3 / RFU, C9orf123 / Fold change vs veh, C9orf123 / RFU, N4BP2L2 / Fold change vs veh, N4BP2L2 / RFU, ARFIP1 / Fold change vs veh, ARFIP1 / RFU, FAM179B / Fold change vs veh, FAM179B / RFU, BCL10 / Fold change vs veh, BCL10 / RFU, UHRF1BP1L / Fold change vs veh, UHRF1BP1L / RFU, BET1 / Fold change vs veh, BET1 / RFU, CNOT2 / Fold change vs veh, CNOT2 / RFU, ZNF268 / Fold change vs veh, ZNF268 / Fold change vs veh, ZNF507 / RFU, DGCR2 / Fold change vs veh, DGCR2 / RFU, WDSUB1 / Fold change vs veh, WDSUB1 / Fold change vs veh, HSP90B1 /// MIR3652 / RFU, ADSS / Fold change vs veh, ADSS / RFU, GK / Fold change vs veh, GK / RFU, ZNF148 / Fold change vs veh, ZNF148 / RFU, TAF9 / Fold change vs veh, TAF9 / RFU, SLC1A5 / Fold change vs veh, SLC1A5 / RFU, SLMO2 / Fold change vs veh, SLMO2 / RFU, ABCC4 / Fold change vs veh, ABCC4 / RFU, LOC101060439 /// RAP1B / Fold change vs veh, LOC101060439 /// RAP1B / RFU, RFX7 / Fold change vs veh, RFX7 / RFU, GTPBP10 / Fold change vs veh, GTPBP10 / RFU, CNEP1R1 / Fold change vs veh, CNEP1R1 / RFU, BIVM-ERCC5 /// ERCC5 / Fold change vs veh, BIVM-ERCC5 /// ERCC5 / RFU, ILF3 / Fold change vs veh, ILF3 / RFU 11762660_at / Fold change /veh 11762660_at / RFU VCAN (11757783_s_at) / Fold change /veh VCAN (11757783_s_at) / RFU DDX43 (11728927_at) / Fold change /veh DDX43 (11728927_at) / RFU KRT8 (11758188_x_at) / Fold change /veh KRT8 (11758188_x_at) / RFU NKD1 (11759106_at) / Fold change /veh NKD1 (11759106_at) / RFU SRD5A1 (11742802_a_at) / Fold change /veh SRD5A1 (11742802_a_at) / RFU TPSAB1 /// TPSB2 (11721975_s_at) / Fold change /veh TPSAB1 /// TPSB2 (11721975_s_at) / RFU GSTM3 (11746129_a_at) / Fold change /veh GSTM3 (11746129_a_at) / RFU IL23R (11737362_x_at) / Fold change /veh IL23R (11737362_x_at) / RFU TMEM51 (11727254_a_at) / Fold change /veh TMEM51 (11727254_a_at) / RFU PIWIL2 (11732686_x_at) / Fold change /veh PIWIL2 (11732686_x_at) / RFU ORM1 (11744905_x_at) / Fold change /veh ORM1 (11744905_x_at) / RFU CCDC152 (11743942_at) / Fold change /veh CCDC152 (11743942_at) / RFU ECM1 (11717891_a_at) / Fold change /veh ECM1 (11717891_a_at) / RFU IL23R (11748794_a_at) / Fold change /veh IL23R (11748794_a_at) / RFU TNFAIP8L3 (11732012_x_at) / Fold change /veh TNFAIP8L3 (11732012_x_at) / RFU MBOAT4 (11741988_at) / Fold change /veh MBOAT4 (11741988_at) / RFU 11764193_at / Fold change /veh 11764193_at / RFU TMEM53 (11763286_at) / Fold change /veh TMEM53 (11763286_at) / RFU MAGEB2 (11727129_at) / Fold change /veh MAGEB2 (11727129_at) / RFU TMEM200A (11744735_a_at) / Fold change /veh TMEM200A (11744735_a_at) / RFU CCDC152 (11751479_a_at) / Fold change /veh CCDC152 (11751479_a_at) / RFU FAM211A (11726209_a_at) / Fold change /veh FAM211A (11726209_a_at) / RFU RGS16 (11746705_a_at) / Fold change /veh RGS16 (11746705_a_at) / RFU VCAN (11755009_s_at) / Fold change /veh VCAN (11755009_s_at) / RFU RHOB (11743442_s_at) / Fold change /veh RHOB (11743442_s_at) / RFU RGS16 (11720943_a_at) / Fold change /veh RGS16 (11720943_a_at) / RFU RGS16 (11720944_at) / Fold change /veh RGS16 (11720944_at) / RFU, VPS4B / Fold change vs veh, VPS4B / RFU, CREB1 / Fold change vs veh, CREB1 / RFU, DNAJC13 / Fold change vs veh, DNAJC13 / RFU, GNAQ / Fold change vs veh, GNAQ / RFU, CDK5R1 / Fold change vs veh, CDK5R1 / RFU, ZRANB3 / Fold change vs veh, ZRANB3 / RFU, CUL4A / Fold change vs veh, CUL4A / RFU, CCNY / Fold change vs veh, CCNY / RFU, UFL1 / Fold change vs veh, UFL1 / RFU, COG3 / Fold change vs veh, COG3 / RFU, DIAPH2 / Fold change vs veh, DIAPH2 / RFU, SKA2 / Fold change vs veh, SKA2 / RFU, AFF3 / Fold change vs veh, AFF3 / RFU, LMF1 / Fold change vs veh, LMF1 / RFU, IPO11 / Fold change vs veh, IPO11 / RFU, DFFB / Fold change vs veh, DFFB / RFU, FOXP1 / Fold change vs veh, FOXP1 / RFU, CARD8 / Fold change vs veh, CARD8 / RFU, STRN3 / Fold change vs veh, STRN3 / RFU, ADK / Fold change vs veh, ADK / RFU, RASSF2 / Fold change vs veh, RASSF2 / RFU, WIPF1 / Fold change vs veh, WIPF1 / RFU, LARP1B / Fold change vs veh, LARP1B / RFU, RASA1 / Fold change vs veh, RASA1 / RFU, RB1 / Fold change vs veh, RB1 / RFU, PPFIA1 / Fold change vs veh, PPFIA1 / RFU, MAT2A / Fold change vs veh, MAT2A / RFU, CCT5 / Fold change vs veh, CCT5 / RFU, WDR92 / Fold change vs veh, WDR92 / RFU, CUX1 / Fold change vs veh, CUX1 / RFU, TTC7A / Fold change vs veh, TTC7A / RFU, TMEM135 / Fold change vs veh, TMEM135 / RFU, DEPTOR / Fold change vs veh, DEPTOR / RFU, CPM / Fold change vs veh, CPM / RFU, DNAJB6 / Fold change vs veh, DNAJB6 / RFU, CACNA2D3 / Fold change vs veh, CACNA2D3 / RFU, DTX4 / Fold change vs veh, DTX4 / RFU, TFCP2 / Fold change vs veh, TFCP2 / RFU, GMCL1 /// GMCL1P1 / Fold change vs veh, GMCL1 /// GMCL1P1 / RFU, AEBP2 / Fold change vs veh, AEBP2 / RFU, SNHG1 /// SNORD22 /// SNORD25 /// SNORD26 /// SNORD27 /// SNORD28 /// SNORD29 /// SNORD31 / Fold change vs veh, SNHG1 /// SNORD22 /// SNORD25 /// SNORD26 /// SNORD27 /// SNORD28 /// SNORD29 /// SNORD31 / Fold change (Aza/veh), C12orf56 (ProbeSet 11735607_a_at) / Fold change (ACY-1035/veh), C12orf56 (ProbeSet 11735607_a_at) / Fold change (Aza/veh), FGFR1OP (ProbeSet 11751329_s_at) / Fold change (ACY-1035/veh), FGFR1OP (ProbeSet 11751329_s_at) / Fold change (Aza/veh), VPS36 (ProbeSet 11739960_a_at) / Fold change (ACY-1035/veh), VPS36 (ProbeSet 11739960_a_at) / RFU SYPL1 (11715823_x_at) / Fold change /veh SYPL1 (11715823_x_at) / RFU IGFBP7 (11715501_s_at) / Fold change /veh IGFBP7 (11715501_s_at) / RFU REEP3 (11722064_at) / Fold change /veh REEP3 (11722064_at) / RFU IGLL1 (11728026_x_at) / Fold change /veh IGLL1 (11728026_x_at): dose or concentration left out as unconfirmed
Details: MV-4-11 cells, 48 hours

Structure (SMILES): Nc1ccc(-c2cccs2)cc1NC(=O)c1ccc2c(c1)cc(C1CC1)n2CCN1CCOCC1 [ACY-1035]
- Fold change /veh CMKLR1 (11741424_a_at): 1.11
